Read-outs that look alike come from different tables or passages of the source.
Tests used:
[1] = biological target: CYP3A-M (Homo sapiens, UniProt P08684); assay: In vitro CYP inhibition in human liver microsomes, CYP3A-M
Experimental: (§3) 1.1 Working solutions (100×) of sample compounds and standard inhibitors were prepared.
(§4) 1.2 Microsomes were removed from a -80°C refrigerator, thawed on ice, labeled with the date, and stored in the refrigerator immediately after use.
(§5) 1.3 20 µL of substrate solution was added to the corresponding wells, while 20 µL of PB (phosphate buffer) was added to the blank wells.
(§6) 1.4 2 µL of sample compound solution and positive control working solution were added to the appropriate wells, while 2 µL of solvent was added to inhibitor-free wells and blank wells.
(§7) 1.5 HLM (human liver microsome) working solution was prepared.
(§8) 1.6 158 µL of HLM working solution was added to all wells of the plate.
(§9) 1.7 The plate was pre-incubated in a 37°C water bath for approximately 10 minutes.
(§10) 1.8 NADPH (nicotinamide adenosine denucleotide hydro-phosphoric acid, i.e. reduced form coenzyme II) cofactor solution was prepared.
(§11) 1.9 20 µL of NADPH cofactor solution was added to all incubation wells.
(§12) 1.10 The solution was mixed and the plate was placed in 37°C water bath to incubate CYP for 10 minutes.
(§13) Concentration-inhibition percentage curves of the control compound and test compounds were plotted using XL Fit or SigmaPlot, followed by nonlinear regression analysis.
(§14) IC50 values were determined using a 3 or 4 parameter logistic equation.

[2] = biological target: CYP2C9 (Homo sapiens, UniProt P11712); assay: In vitro CYP inhibition in human liver microsomes, CYP2C9
Experimental: as §3, §4, §5, §6, §7, §8, §9, §10, §11, §12
(§15) 1.11 At designated time points, the reaction was terminated by adding 400 µL of cold stopping solution.
(§16) 1.13 200 µL of the supernatant was transferred into 100 µL of HPLC-grade water and vortexed for 10 minutes.
(§17) 1.14 Samples were subjected to LC/MS/MS analysis.
as §13, §14

[3] = biological target: CYP2C19 (Homo sapiens, UniProt P33261); assay: In vitro CYP inhibition in human liver microsomes, CYP2C19
Experimental: as §3, §4, §5, §6, §7, §8, §9, §10, §11, §12, §15, §16, §17, §13, §14

[4] = biological target: T1, PDE3A (Homo sapiens, UniProt Q14432); assay: In vitro inhibitory effect on PDE3A enzyme (AMP-Glo assay); assay type: biochemical
T1 construct: purchased BPS
T1 sequence (Q14432 whole entry): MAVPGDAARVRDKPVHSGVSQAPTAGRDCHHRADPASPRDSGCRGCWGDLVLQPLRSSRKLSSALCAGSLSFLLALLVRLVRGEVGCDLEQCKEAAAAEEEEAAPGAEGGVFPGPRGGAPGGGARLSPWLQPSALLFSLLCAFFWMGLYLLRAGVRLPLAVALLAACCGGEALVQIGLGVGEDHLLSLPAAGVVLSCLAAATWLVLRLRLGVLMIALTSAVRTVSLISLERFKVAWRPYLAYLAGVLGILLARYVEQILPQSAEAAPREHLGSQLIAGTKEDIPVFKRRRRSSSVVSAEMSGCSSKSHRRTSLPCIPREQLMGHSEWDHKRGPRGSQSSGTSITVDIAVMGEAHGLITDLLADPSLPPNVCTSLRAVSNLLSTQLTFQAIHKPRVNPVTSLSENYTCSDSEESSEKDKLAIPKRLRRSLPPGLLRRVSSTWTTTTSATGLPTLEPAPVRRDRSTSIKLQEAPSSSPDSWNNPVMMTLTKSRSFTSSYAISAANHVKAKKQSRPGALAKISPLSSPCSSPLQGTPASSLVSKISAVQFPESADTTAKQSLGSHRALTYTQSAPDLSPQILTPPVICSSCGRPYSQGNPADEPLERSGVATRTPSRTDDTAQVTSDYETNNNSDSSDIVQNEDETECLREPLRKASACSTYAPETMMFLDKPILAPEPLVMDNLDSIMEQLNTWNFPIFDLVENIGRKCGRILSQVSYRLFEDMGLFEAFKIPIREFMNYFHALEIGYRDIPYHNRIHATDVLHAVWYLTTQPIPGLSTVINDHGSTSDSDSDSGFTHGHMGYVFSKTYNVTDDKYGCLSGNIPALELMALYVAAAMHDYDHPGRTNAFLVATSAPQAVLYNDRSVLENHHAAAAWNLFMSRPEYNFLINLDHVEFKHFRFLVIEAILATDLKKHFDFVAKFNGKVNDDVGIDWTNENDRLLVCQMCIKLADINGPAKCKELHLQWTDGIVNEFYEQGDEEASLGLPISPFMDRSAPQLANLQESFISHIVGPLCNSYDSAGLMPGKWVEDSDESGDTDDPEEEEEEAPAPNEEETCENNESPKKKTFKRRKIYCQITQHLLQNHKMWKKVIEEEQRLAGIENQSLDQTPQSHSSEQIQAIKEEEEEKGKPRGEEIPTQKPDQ
Experimental: (§1) 1. Table 1 Main reagents and consumables for in vitro detection of inhibitory effect
(§2) 2. Preparation of experimental buffers Reaction buffer (5×): 50 mM Tris-HCl (buffer), 50 mM MgCl2, 0.5% BSA, 0.25% Tween-20, pH 7.4, stored at -20°C. 3. […] The starting concentration of the reference substance serial dilution was the Low control, and 1% DMSO-reaction buffer served as the High control. • 3) The enzyme was diluted to the desired concentration with 1× reaction buffer, and 4 µL of the diluted solution was transferred to the assay plate. After centrifugation, the 384-well low dead-volume microplate was sealed with sealing film and incubated in the incubator at 23°C for 15 minutes. • 4) The substrate cAMP was diluted to the desired concentration using 1× reaction buffer, and 5 µL of the diluted solution was transferred to the assay plate. After centrifugation, the plate was sealed again and incubated in the incubator at 23°C for 60 minutes (PDE3A) or 10 minutes (PDE4B1). • 5) Then, 5 µL of Reagent I from the AMP-Glo™ Assay Kit was added to the assay plate. After centrifugation and sealing, the plate was incubated in the incubator at 23°C for 60 minutes. • 6) The detection solution was prepared according to the AMP-Glo™ Assay Kit instructions, and 10 µL of the detection solution was added to the assay plate. After centrifugation and sealing, the plate was incubated in the incubator at 23°C for 60 minutes. • 7) The readout was recorded using a multimode microplate reader. 4. […] 5.

[5] = biological target: CYP1A2 (Homo sapiens, UniProt P05177); assay: In vitro CYP inhibition in human liver microsomes, CYP1A2
CYP1A2, sequence (P05177 whole entry): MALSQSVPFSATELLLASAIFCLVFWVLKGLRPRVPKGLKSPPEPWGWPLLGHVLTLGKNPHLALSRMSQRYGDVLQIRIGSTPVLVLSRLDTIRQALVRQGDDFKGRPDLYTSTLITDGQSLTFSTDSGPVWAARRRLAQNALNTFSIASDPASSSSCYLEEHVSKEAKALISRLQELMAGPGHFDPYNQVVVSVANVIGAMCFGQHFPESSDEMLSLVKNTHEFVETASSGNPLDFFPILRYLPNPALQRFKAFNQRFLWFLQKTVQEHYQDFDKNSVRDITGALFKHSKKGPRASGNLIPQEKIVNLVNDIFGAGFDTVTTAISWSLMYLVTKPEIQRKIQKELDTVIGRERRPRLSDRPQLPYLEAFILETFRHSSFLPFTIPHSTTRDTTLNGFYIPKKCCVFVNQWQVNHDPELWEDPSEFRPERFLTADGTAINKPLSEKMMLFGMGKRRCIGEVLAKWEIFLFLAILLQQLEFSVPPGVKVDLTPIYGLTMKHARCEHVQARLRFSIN
Experimental: as §3, §4, §5, §6, §7, §8, §9, §10, §11, §12, §15, §16, §17, §13, §14

[6] = biological target: T2, PDE4B1 (Homo sapiens, UniProt Q07343); assay: In vitro inhibitory effect on PDE4B1 enzyme (AMP-Glo assay); assay type: biochemical
T2 construct: purchased Sigma
T2 sequence (Q07343 whole entry): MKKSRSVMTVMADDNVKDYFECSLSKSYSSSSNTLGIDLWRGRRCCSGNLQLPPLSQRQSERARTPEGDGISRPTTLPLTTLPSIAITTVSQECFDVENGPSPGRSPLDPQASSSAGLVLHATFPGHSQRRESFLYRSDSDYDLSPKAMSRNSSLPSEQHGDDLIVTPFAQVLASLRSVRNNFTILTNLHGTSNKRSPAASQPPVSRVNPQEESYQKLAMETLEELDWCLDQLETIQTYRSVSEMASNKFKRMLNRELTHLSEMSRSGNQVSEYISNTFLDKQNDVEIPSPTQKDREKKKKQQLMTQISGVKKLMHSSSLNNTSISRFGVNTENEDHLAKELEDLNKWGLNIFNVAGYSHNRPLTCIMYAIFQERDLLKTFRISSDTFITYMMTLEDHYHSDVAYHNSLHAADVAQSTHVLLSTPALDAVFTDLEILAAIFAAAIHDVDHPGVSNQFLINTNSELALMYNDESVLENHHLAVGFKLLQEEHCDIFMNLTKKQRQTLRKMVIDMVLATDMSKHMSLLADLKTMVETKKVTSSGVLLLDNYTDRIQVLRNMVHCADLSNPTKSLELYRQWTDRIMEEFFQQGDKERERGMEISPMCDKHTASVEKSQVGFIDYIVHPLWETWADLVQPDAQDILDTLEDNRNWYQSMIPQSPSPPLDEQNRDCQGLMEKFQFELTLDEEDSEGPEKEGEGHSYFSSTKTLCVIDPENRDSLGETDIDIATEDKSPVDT
Experimental: as §1, §2

[7] = biological target: CYP2D6 (Homo sapiens, UniProt P10635); assay: In vitro CYP inhibition in human liver microsomes, CYP2D6
CYP2D6, sequence (P10635 whole entry): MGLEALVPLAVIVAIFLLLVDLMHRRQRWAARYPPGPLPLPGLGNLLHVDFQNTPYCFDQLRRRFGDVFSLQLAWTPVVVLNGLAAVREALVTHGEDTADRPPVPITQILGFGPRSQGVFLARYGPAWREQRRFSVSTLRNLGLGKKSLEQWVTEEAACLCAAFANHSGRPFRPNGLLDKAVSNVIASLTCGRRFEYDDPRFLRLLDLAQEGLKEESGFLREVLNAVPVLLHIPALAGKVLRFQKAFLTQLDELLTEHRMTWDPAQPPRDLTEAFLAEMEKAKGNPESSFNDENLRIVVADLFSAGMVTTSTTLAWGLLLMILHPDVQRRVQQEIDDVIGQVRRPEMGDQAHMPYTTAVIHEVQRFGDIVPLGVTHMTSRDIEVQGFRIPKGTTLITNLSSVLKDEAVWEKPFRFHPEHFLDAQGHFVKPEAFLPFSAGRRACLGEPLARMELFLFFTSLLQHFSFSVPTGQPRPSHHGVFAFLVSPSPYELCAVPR
Experimental: as §3, §4, §5, §6, §7, §8, §9, §10, §11, §12, §15, §16, §17, §13, §14

[8] = AMP-Glo Assay Kit, substrate cAMP, 23°C, 60 minutes, read-out: PDE3A (IC50)
[9] = AMP-Glo Assay Kit, substrate cAMP, 23°C, 10 minutes, read-out: PDE4B1 (IC50)

CYP2C19, sequence (P33261 whole entry): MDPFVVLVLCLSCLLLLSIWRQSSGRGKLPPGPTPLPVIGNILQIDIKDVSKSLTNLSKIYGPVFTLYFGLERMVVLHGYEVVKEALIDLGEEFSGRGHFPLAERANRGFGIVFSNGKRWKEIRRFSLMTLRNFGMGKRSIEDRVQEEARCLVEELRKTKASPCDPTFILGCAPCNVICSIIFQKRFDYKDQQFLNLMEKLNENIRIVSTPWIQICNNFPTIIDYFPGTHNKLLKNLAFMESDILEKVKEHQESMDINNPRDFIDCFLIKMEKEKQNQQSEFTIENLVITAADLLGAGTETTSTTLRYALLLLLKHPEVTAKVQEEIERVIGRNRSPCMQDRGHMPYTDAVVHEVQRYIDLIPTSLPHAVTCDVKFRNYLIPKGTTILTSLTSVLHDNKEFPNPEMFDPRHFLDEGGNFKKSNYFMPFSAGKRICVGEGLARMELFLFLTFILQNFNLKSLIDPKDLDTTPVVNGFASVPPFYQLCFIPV
CYP2C9, sequence (P11712 whole entry): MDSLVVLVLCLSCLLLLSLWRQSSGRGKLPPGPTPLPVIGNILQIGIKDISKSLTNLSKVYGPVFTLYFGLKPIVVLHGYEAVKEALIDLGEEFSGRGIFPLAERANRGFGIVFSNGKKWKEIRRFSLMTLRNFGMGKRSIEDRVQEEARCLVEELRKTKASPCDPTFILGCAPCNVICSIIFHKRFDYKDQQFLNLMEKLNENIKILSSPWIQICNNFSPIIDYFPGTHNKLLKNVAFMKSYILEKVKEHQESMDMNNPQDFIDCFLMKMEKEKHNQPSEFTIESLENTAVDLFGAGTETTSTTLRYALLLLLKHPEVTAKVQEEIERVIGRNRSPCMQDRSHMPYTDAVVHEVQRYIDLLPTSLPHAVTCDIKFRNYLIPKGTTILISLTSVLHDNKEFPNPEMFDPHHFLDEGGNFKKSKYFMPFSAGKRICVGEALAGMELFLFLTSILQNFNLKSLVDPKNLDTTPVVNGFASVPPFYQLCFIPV
CYP3A-M, sequence (P08684 2-503): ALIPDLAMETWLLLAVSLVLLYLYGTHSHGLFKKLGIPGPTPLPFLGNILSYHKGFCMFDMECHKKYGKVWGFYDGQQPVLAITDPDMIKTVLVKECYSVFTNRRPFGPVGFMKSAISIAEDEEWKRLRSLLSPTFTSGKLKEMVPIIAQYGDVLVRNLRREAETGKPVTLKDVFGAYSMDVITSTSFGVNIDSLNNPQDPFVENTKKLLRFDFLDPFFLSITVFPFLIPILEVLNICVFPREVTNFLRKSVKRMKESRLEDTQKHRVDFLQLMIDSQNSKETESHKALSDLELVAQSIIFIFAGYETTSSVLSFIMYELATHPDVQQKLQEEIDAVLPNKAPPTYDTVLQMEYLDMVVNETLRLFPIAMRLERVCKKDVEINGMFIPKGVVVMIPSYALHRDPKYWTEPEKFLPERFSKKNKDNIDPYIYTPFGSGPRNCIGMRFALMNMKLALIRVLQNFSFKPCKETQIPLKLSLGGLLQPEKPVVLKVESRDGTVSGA

SMILES	IC50 at 10 min ([1]; microsomes) [nM]	IC50 [2] [nM]	IC50 [3] [nM]	IC50 [4] [nM]	IC50 [5] [nM]	IC50 [6] [nM]	IC50 [7] [nM]	IC50 at 10 min ([1]; human liver microsomes) [nM]	IC50 [4, 8] [nM]	IC50 [6, 9] [nM]
CCOc1cc2c(cc1OC)-c1cc(N(CCC(=O)NCCO)c3c(C)cc(C)cc3C)nc(=O)n1CC2 [Compound 82]	42800	9350	> 50000	0.088	> 50000	14.2	> 50000			
CCOc1cc2c(cc1OC)-c1cc(N(CCNC(=O)NOC)c3c(C)cc(C)cc3C)nc(=O)n1CC2 [Compound 86]		3130	29100		> 50000		29700	1630	0.034	7.9
CCOc1cc2c(cc1OC)-c1cc(N(CCCO)c3c(C)cc(C)cc3C)nc(=O)n1CC2 [Compound 60]	> 50000	3870	42100	0.0033	> 50000	6.3	> 50000			
CCOc1cc2c(cc1OC)-c1cc(N(CCO)c3c(C)cc(C)cc3C)nc(=O)n1CC2 [Compound 75]	33200	8310	30600		> 50000		> 50000			
CCOc1cc2c(cc1OC)-c1cc(N(CCC(=O)O)c3c(C)cc(C)cc3C)nc(=O)n1CC2 [Compound 61]	> 50000	> 50000	> 50000	0.0061	> 50000	11.1	> 50000			
COc1cc2c(cc1OC)-c1cc(=Nc3c(C)cc(C)cc3C)n(CCNC(=O)N3Cc4cn(C5CC5)nc4C3)c(=O)n1CC2 [Compound 68]				1.82		334				
COc1cc2c(cc1OC)-c1cc(N(CCNC(=O)N3CCOCC3CO)c3c(C)cc(C)cc3C)nc(=O)n1CC2 (stereo not shown) [Compound 48]				0.16		579				
COc1cc2c(cc1OC)-c1cc(N(CCNC(N)=O)c3c(C)cc(C)cc3C)nc(=O)n1CC2 [Compound 45]				0.032		100				
CCOc1cc2c(cc1OC)-c1cc(N(CCNC(N)=O)c3c(C)cc(C)cc3C)nc(=O)n1CC2 [Compound 84]		4520	> 50000		> 50000		> 50000	> 50000	0.008	7.5
COc1cc2c(cc1OC)-c1cc(=Nc3c(C)cc(C)cc3C)n(CCNC(=O)NCCN3CCOCC3)c(=O)n1CC2 [Compound 38]				1.61		1890				
COc1cc2c(cc1OC)-c1cc(N(CCC(C)(C)O)c3c(C)cc(C)cc3C)nc(=O)n1CC2 [Compound 18]									0.088	213
CCOc1cc2c(cc1OC)-c1cc(=Nc3c(C)cc(C)cc3C)n(CCN3CCS(=O)(=O)CC3)c(=O)n1CC2 [Compound 73]									0.53	414
COc1cc2c(cc1OC)-c1c/c(=N\c3c(C)cc(C)cc3C)n(CCNC(N)=O)c(=O)n1CC2 [Ensifentrine, reference compound]		3520	23200		> 50000		41500	8600	0.17	102
CCOc1cc2c(cc1OC)-c1cc(N(CCNC(=O)c3ccccn3)c3c(C)cc(C)cc3C)nc(=O)n1CC2 [Compound 63]									0.042	1.2
COc1cc2c(cc1OC)-c1cc(=Nc3c(C)cc(C)cc3F)n(CCNC(N)=O)c(=O)n1CC2 [Compound 66]				0.64		268				
COc1cc2c(cc1OCC(F)(F)F)CCn1c-2cc(=Nc2c(C)cc(C)cc2C)n(CCNC(=O)c2c(O)nnn2C)c1=O [Compound 26]									0.34	419
CCOc1cc2c(cc1OC)-c1cc(N(c3c(C)cc(C)cc3C)C(CO)CO)nc(=O)n1CC2 [Compound 80]	43500	10100	31500	0.0028	> 50000	7.4	> 50000			
COc1cc2c(cc1OCC1CC1)CCn1c-2cc(=Nc2c(C)cc(C)cc2C)n(CCNC(=O)c2c(O)nnn2C)c1=O [Compound 27]									2.16	918
COc1cc2c(cc1OC)-c1cc(=Nc3c(C)cc(C)cc3C)n(CCNC(=O)c3cnc4n3CCC4)c(=O)n1CC2 [Compound 36]				0.9		530				
CCOc1cc2c(cc1OC)-c1cc(=Nc3c(C)cc(C)cc3C)n(CCNC(=O)NOC)c(=O)n1CC2 [Compound 85]				0.31		40.5				
COc1cc2c(cc1OC)-c1cc(N(c3c(C)cc(C)cc3C)C3CN(C(N)=O)C3)nc(=O)n1CC2 [Compound 32]				0.21		238				
COc1cc2c(cc1OC)C(C)Cn1c-2cc(=Nc2c(C)cc(C)cc2C)n(CCNC(N)=O)c1=O (stereo not shown) [Compound 9]				5.66		114				
CCOc1cc2c(cc1OC)-c1cc(N(CCNC(=O)c3c(O)nnn3C)c3c(C)cc(C)cc3C)nc(=O)n1CC2 [Compound 43]				0.19		13.6				
CCOc1cc2c(cc1OC)CCn1c-2cc(=Nc2c(C)cc(C)cc2C)n(CCNC(N)=O)c1=O [Compound 12]				7.45		337				
COc1cc2c(cc1OC)S(=O)(=O)CCn1c-2cc(=Nc2c(C)cc(C)cc2C)n(CCNC(N)=O)c1=O [Compound 21]				1000		6910				

From patent EP4714952A1, “COMPOUND AND USE THEREOF” (Autobio Group Co., Ltd., priority 2023, dated 2025)
